Test results as given in patent US7964634B2, “Therapeutic compounds” (Allergan, Inc., priority 2008, dated 2011).

Tested on: lashes and adjacent hairs of the eyelids
Test: Observation of eyelash and hair growth in glaucoma patients treated in one eye
Assay type: in vivo
From the text: In the course of treating patients having glaucoma, treatment may only be appropriate in one eye. […] The lash appearance on the lids of the treated eyes would have appeared quite attractive if it represented a bilateral phenomenon. As a result of its asymmetric nature, the long lashes on one side could be construed as disturbing from a cosmetic standpoint. A systemic examination was preformed as a result of the asymmetric phenomenon. It soon became apparent that this altered appearance was not an isolated finding.
The changes in the lashes were apparent on gross inspection in several patients once attention was focused on the issue. In those with light colored hair and lashes, the differences were only seen easily with the aid of the high magnification and lighting capabilities of the slit lamp biomicroscope. In the course of glaucoma follow-up examination, attention is generally immediately focused on the eye itself. As a result of the high power magnification needed only one eye is seen at a time and the eye is seen at a high enough power that the lashes are not in focus. At these higher powers, any lash asymmetry between the two eyes is not likely to be noticed except by careful systematic comparison of the lashes and adjacent hairs of the eyelids of the two eyes. […]

In the case of CCNC(=O)CCC/C=C\C[C@@H]1[C@@H](/C=C/[C@@H](O)CCc2ccccc2)[C@H](O)C[C@@H]1O [bimatoprost], the “differences in lashes and adjacent hairs of the treated side” value (all patients taking the drug on a unilateral basis for longer than 6 months) is reported as “Definite differences could be identified to varying degrees” and the “lash appearance in treated eye versus non-treated eye” value (glaucoma patient treated in one eye only) is reported as “longer, thicker, and fuller in the treated eye than in the non-treated eye”.
